Test results reported in PubChem BioAssay (NCI).
Several values for one entry are separate records, joined by “and”; a condition that tells them apart may be missing. Identical values can stand only once.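 Protocol summary: plate cells (96-well), add compound at 5 concentrations, incubate 48 h, interpolate endpoints linearly. At the GI50, growth is halved. The concentration for full growth arrest is given as TGI.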

Tests used:
Assay in all cases: inhibition of tumour cell growth, NCI panel, 48 h
A549 NSCLC = tested on: A549 NSCLC
BT-549 breast = tested on: BT-549 breast
LOX IMVI melanoma = tested on: LOX IMVI melanoma
NCI-H226 lung = tested on: NCI-H226 lung
NCI-H23 lung = tested on: NCI-H23 lung
NCI-H522 lung = tested on: NCI-H522 lung
SF-539 CNS = tested on: SF-539 CNS
SK-MEL-5 melanoma = tested on: SK-MEL-5 melanoma
SK-OV-3 ovarian = tested on: SK-OV-3 ovarian
SNB-75 CNS = tested on: SNB-75 CNS

Row | Structure (SMILES) | GI50 (A549 NSCLC) [µM] | TGI (A549 NSCLC) | GI50 (BT-549 breast) | TGI (BT-549 breast) | GI50 (LOX IMVI melanoma) | TGI (LOX IMVI melanoma) | GI50 (NCI-H226 lung) | TGI (NCI-H226 lung) | GI50 (NCI-H23 lung) [µM] | TGI (NCI-H23 lung) | GI50 (NCI-H522 lung) | TGI (NCI-H522 lung) | GI50 (SF-539 CNS) | TGI (SF-539 CNS) | GI50 (SK-MEL-5 melanoma) [µM] | TGI (SK-MEL-5 melanoma) | GI50 (SK-OV-3 ovarian) | TGI (SK-OV-3 ovarian) | GI50 (SNB-75 CNS) | TGI (SNB-75 CNS)
1 | O=C(/C(=C\c1ccc([N+](=O)[O-])cc1)S(=O)Cc1ccc(F)cc1)c1ccc(F)cc1 (stereo not drawn) | 2.83 | 10.2 µM | 1.96 µM | 3.88 µM | 1.54 µM | 3.05 µM | 4.32 µM | 21.9 µM | 1.91 | 4.1 µM | 1.77 µM | 3.31 µM | 1.69 µM | 3.37 µM | 1.8 | 3.5 µM | 11.8 µM | 24.2 µM | 3.28 µM | 15.3 µM
2 | CC1=CC(=C(c2ccc(N)cc2)c2ccc(N)cc2)C=CC1=N | 2.68 | 20.1 µM and 50.6 µM and 15.9 µM | 0.679 µM and 1.63 µM | 5.47 µM and 7.09 µM and 9.14 µM | 1.38 µM and 3.71 µM | 5.5 µM and 6.81 µM and 15 µM | 2.16 µM and 7.35 µM | 16.5 µM and 19.6 µM and 46.6 µM | 0.828 | 4.97 µM and 16.2 µM and 16.4 µM | 1.8 µM and 2.26 µM | 17.8 µM and 7.03 µM | 0.632 µM and 2.32 µM | 8.36 µM and 9.18 µM and 16.9 µM | 0.928 | 2.3 µM and 5.45 µM and 3.41 µM | 2.44 µM and 4 µM | 8.04 µM and 25.2 µM and 17.2 µM | 0.428 µM and 0.455 µM and 2.31 µM | 
3 | Cc1ccc(C(SCC(N)C(=O)O)(c2ccc(C)cc2)c2ccc(C)cc2)cc1 (stereo not drawn) | 2.62 | 16.8 µM | 3.33 µM | 20.5 µM | 7.16 µM | 20.2 µM | 9.84 µM | > 49.8 µM | 4.87 | > 43.2 µM | 1.01 µM | 16.7 µM | 1.22 µM | 7.5 µM | 0.907 | 14.7 µM | 1 µM | 15.3 µM | 6.69 µM | > 38.2 µM
4 | Cc1cc(O)ccc1C1=NN(c2ccc(S(C)(=O)=O)cc2)C(=O)CC1 | 6.2 | > 100 µM | 4.97 µM | > 100 µM | 7.25 µM | > 100 µM | > 100 µM | > 100 µM | 38.5 | > 100 µM | 2.53 µM | 8.6 µM | 13.2 µM | > 100 µM | 5.49 | > 100 µM | 9.77 µM | > 100 µM | 5.53 µM | 75.2 µM
5 | CC(C)(C)C(=O)OCOP(=O)(OCOC(=O)C(C)(C)C)C1CC(O)N(O)C1=O (stereo not drawn) | 30.7 | > 100 µM | 2.96 µM | 8.63 µM | 3.35 µM | > 100 µM | 33.5 µM | > 100 µM | 3.67 | 25.3 µM | 2.95 µM | 14.4 µM | 3.18 µM | 22.1 µM | 21.5 | > 100 µM | 25.8 µM | > 100 µM | 19.2 µM | > 100 µM
6 | CC1(C)CCC2=C(O1)c1ccccc1C(=O)C2=O | 2.15 | 5.14 µM and 1.73 µM | 1.51 µM | 2.92 µM and 1.74 µM | 0.33 µM and 0.309 µM | 1.31 µM and 0.934 µM | 1.84 µM | 3.77 µM and 2.89 µM | 1.57 | 3.91 µM and 1.09 µM | 1.89 µM | 4.79 µM and 1.52 µM | 1.63 µM | 2.99 µM and 0.918 µM | 1.01 | 2.19 µM and 0.714 µM |  | 3.94 µM | 1.64 µM | 3.01 µM and 1.35 µM
7 | O=C1C(=O)c2c(nc3ccc(Br)cn23)-c2ccccc21 | 1.66 | 3.81 µM | 1.37 µM | 2.67 µM | 0.242 µM | 0.689 µM | 1.61 µM | 3.41 µM | 0.372 | 2.51 µM | 0.588 µM | 2.22 µM | 0.472 µM | 1.01 µM | 0.317 | 0.788 µM | 1.71 µM | 3.09 µM | 0.738 µM | 2.37 µM
8 | C/C(=C\CCc1ccoc1)CC/C=C(\C)CCCN1CCOCC1 | 9.08 | 23.2 µM | 1.88 µM | 8.74 µM | 6.91 µM | 20.7 µM | 10.5 µM | 30.7 µM | 6.03 | 21 µM | 10.9 µM | 26.8 µM | 5.49 µM | 19.7 µM | 1.7 | 3.52 µM | 7.06 µM | 19.7 µM | 3.15 µM | 16.3 µM
9 | Cc1ccccc1-n1ncc(C(=O)c2ccccc2)c1N | > 25 | > 25 µM | > 25 µM | > 25 µM | > 25 µM | > 25 µM | > 25 µM | > 25 µM | > 25 | > 25 µM | > 25 µM | > 25 µM | > 25 µM | > 25 µM | > 25 | > 25 µM | > 25 µM | > 25 µM | > 9.3 µM | > 25 µM
10 | CC1COc2c(N3CCN(C)CC3)c(F)cc3c(=O)c(C(=O)O)cn1c23 (stereo not drawn) | > 100 | > 100 µM | > 100 µM | > 100 µM | > 100 µM | > 100 µM | 93.1 µM | > 100 µM | > 100 | > 100 µM | > 100 µM | > 100 µM | > 100 µM | > 100 µM | > 100 | > 100 µM | > 100 µM | > 100 µM | > 100 µM | > 100 µM
